Measured values taken from patent publication US9861678B2, “Casein peptide for use in the treatment of uterine infections” (Mileutis Ltd., priority 2010, dated 2018).

Experiments:
[1] = system: dairy cows with clinical postpartum metritis; experiment: Clinical study 2, high dose: casein hydrolysate vs antibiotics in post-partum bovine clinical metritis (safety and efficacy); format: in vivo, lactating Israel Holstein Friesian cows
Method: The cows recruited for this study were lactating Israel Holstein Friesian located in a large dairy herd in Israel (longitude 34°40′E-35°30′E; latitude 30°30′N-33°01′N).
Cows enrollment to the study with respect to the physical conditions, inclusion criteria and exclusion criteria were as detailed above for clinical study-1 with respect to the overall physical condition and with respect to the diagnosis with clinical post partum metritis. In addition, cows randomization was as detailed above.
On day “0” (first day of the study) dairy heifers or primiparous or multiparous dairy cows from the same herd and with the same lactation and ages were randomly divided, using tables prepared in advance by the investigator, to receive one or other of the treatments. Within each table, cows were assigned to treatment in pairs, a cow for each group.
Case study Arm (“arm 1”)—1350 mg of bovine casein hydrolysate (Batch Number B100) administered in a 150 ml solution 3 times.
(§1) Control Arm (“arm 2”)—25 ml of Oxytetracycline dehydrate (200 mg/ml total of 5,000 mg) (Norbrook Laboratory, UK).
(§2) Treatment was initiated at day “0” and was administered to the cows through transcervical intrauterine infusion using a sterile uterine catheter.
Safety and efficacy criteria are as detailed above for clinical study 1 (Example 2)
The administrated veterinarian examined all cows and was in charge on the ranking of the genital secretions, from 1 to 4, based on the descriptions provided in Table 2 of clinical study 1 as well as the genital system morphology according to the description in Table 3 of clinical study 1 and the overall general impression from each cow according to the description on […].

[2] = system: dairy cows with clinical postpartum metritis; experiment: Clinical study 1, low dose: casein hydrolysate vs antibiotics in post-partum bovine clinical metritis (safety and efficacy); format: in vivo; settings: for genital secretions (ranking): score 0-4 per Table 2
Method: The effects of bovine casein hydrolysate in comparison with antibiotic drugs, was studied in dairy cows suffering from acute puerperal metritis (Sheldon et al., ibid 2006).
The cows recruited for this study were lactating Holstein Friesian located in large dairy herd in Israel (longitude 34°40′E-35°30′E; latitude 30°30′N-33°01′N). The cows were milked 3 times a day. The herd used was free-stall barn with a size ranged from 300 to 350 milking cows.
Cows are enrolled to the study provided that their physical condition is complied with the inclusion criteria as follows: • Cows with clinical postpartum metritis, • Cows with non-twins delivery, • Cows were not administered with intrauterine or systemic reproductive hormone therapy during the last 4 weeks, • Cows with no diagnosed morbidities, which may be potentially influence the outcome of treatment in the judgment of the investigator, • The herd managers agreed not to administer any intrauterine or reproductive hormonal therapy before examination of cows for this trial.
In addition, cows were enrolled to the clinical study provided that they have none of the following characteristics (herein “exclusion criteria”): • Cows had abnormal internal genitalia (including adhesions) • Cows with diagnosis and or treatment of severe vaginitis, lameness, mastitis-ketosis and digestive disorders during the current post calving period or any other clinical disease requiring systemic treatment at enrollment, • Cows identified to be culled (not to be inseminated) after calving • Cows administrated with immunotherapy within 3 weeks prior to study entry, • Cows administrated with anti-inflammatory and/or anabolic therapies, either systemic or by feeding 2 weeks prior to study entry. • Cows which are suspected or with a diagnosis of retained fetal membranes at the time of the current calving. • Cows which are suspected or with a clinical evidence of acute puerperal metritis with a systemic effect • Cows which are indented to be removed for any reason from the farm in the current location.
Cows in a proper physical condition (as defined above in the inclusion criteria and the exclusion criteria), that were diagnosed with confirmed clinical metritis, as determined by any one of the following clinical criteria, were enrolled to this clinical study:
1) cows must be febrile (i.e., morning rectal temperature more than 39.4° C.) and/or
2) cows must have a flaccid, non-retractable uterus that is located in the abdomen, a cervical diameter >7.5 cm, and a watery, mucopurulent, or fetid vulvar discharge.
On day “0” (first day of the study), dairy heifers or primiparous or multiparous dairy cows from the same herd and within the same lactation and ages were randomly divided, using tables prepared in advance by the investigator, to receive one or other of the treatments. Within each table, cows were assigned to treatment in pairs, a cow for each group.
Case study Arm (“arm 1”)—450 mg of bovine casine hydrolysate (Batch Number B100) administered in a 150 ml solution until completion of the arm's sample size.
as §1, §2
Safety was determined by monitoring on days 0.3, 1, 2, 3, 7 and 14 post-treatment, the appearance of adverse events (as detailed below) or any sign of toxicity.
In addition, the overall general impression from each cow was assessed and ranked according to the description on Table 1.
Efficacy was assessed by measuring the rectal temperature; genital system morphology and the genital secretions at a first visit after the morning observation and milking, before the treatment, 6-8 hours after the treatment and then on days 1, 2, 3, 7 and 14 post treatment. In general, treatment success was assessed after a total of 14 days after treatment. […]

CN(C)[C@@H]1C(O)=C(C(N)=O)C(=O)[C@@]2(O)C(O)=C3C(=O)c4c(O)cccc4[C@@](C)(O)[C@H]3[C@H](O)[C@@H]12 [Antibiotics, Oxytetracycline dehydrate]
cow's fever (rectal temperature) ([1]; 6-8 h after treatment, casein hydrolysate 1350 mg or oxytetracycline 5,000 mg intrauterine): 39.1 °C | cow's fever (rectal temperature) ([1]; Before treatment (day = 0), casein hydrolysate 1350 mg (150 ml solution 3 times) or oxytetracycline 5,000 mg, intrauterine, 4 and 3 cows): 38.4 °C | cow's fever (rectal temperature) ([1]; Day 1 (22-32 h after treatment), casein hydrolysate 1350 mg or oxytetracycline 5,000 mg intrauterine): 38.6 °C | cow's fever (rectal temperature) ([1]; Day 2, casein hydrolysate 1350 mg or oxytetracycline 5,000 mg intrauterine): 38.4 °C | cow's fever (rectal temperature) ([1]; Day 3, casein hydrolysate 1350 mg or oxytetracycline 5,000 mg intrauterine): 38.9 °C | cow's fever (rectal temperature) ([1]; Day 7, casein hydrolysate 1350 mg or oxytetracycline 5,000 mg intrauterine): 38.3 °C | cow's fever (rectal temperature) ([1]; Day 14, casein hydrolysate 1350 mg or oxytetracycline 5,000 mg intrauterine): 38.7 °C | cow's fever (rectal temperature) ([2]; 6-8 h after treatment, casein hydrolysate 450 mg or oxytetracycline 5,000 mg intrauterine): 39.4 ± 0.66 °C | genital secretions (ranking) ([2]; 6-8 h after treatment): 3.0 ± 0.92 | cow's fever (rectal temperature) ([2]; Before treatment (day = 0), casein hydrolysate 450 mg in 150 ml or oxytetracycline 5,000 mg, intrauterine infusion, 8 cows per arm): 38.8 ± 0.26 °C | genital secretions (ranking) ([2]; Before treatment (day = 0), casein hydrolysate 450 mg or oxytetracycline 5,000 mg intrauterine): 3.625 ± 0.517 | cow's fever (rectal temperature) ([2]; Day 1 (22-32 h after treatment), casein hydrolysate 450 mg or oxytetracycline 5,000 mg intrauterine): 39.1 ± 0.27 °C | genital secretions (ranking) ([2]; Day 1 (22-32 h after treatment)): 2.12 ± 0.84 | cow's fever (rectal temperature) ([2]; Day 2, casein hydrolysate 450 mg or oxytetracycline 5,000 mg intrauterine): 39.1 ± 0.47 °C | genital secretions (ranking) ([2]; Day 2): 2.0 ± 0.92 | cow's fever (rectal temperature) ([2]; Day 3, casein hydrolysate 450 mg or oxytetracycline 5,000 mg intrauterine): 38.9 ± 0.37 °C | genital secretions (ranking) ([2]; Day 3): 2.0 ± 0.92 | cow's fever (rectal temperature) ([2]; Day 7, casein hydrolysate 450 mg or oxytetracycline 5,000 mg intrauterine): 38.9 ± 0.18 °C | genital secretions (ranking) ([2]; Day 7): 1.5 ± 0.75 | cow's fever (rectal temperature) ([2]; Day 14, casein hydrolysate 450 mg or oxytetracycline 5,000 mg intrauterine): 38.8 ± 0.41 °C | genital secretions (ranking) ([2]; Day 14): 1.5 ± 0.75
